# From PubChem BioAssay AID328 (DTP/NCI, 2004)
# Several values for one entry are separate records, joined by “and”; a condition that tells them apart may be missing. Equal values may be shown once. Toxic doses and inconclusive results are not listed.
# Test system: BDF1 mice, P388 leukemia ip, median survival T/C
# Assay: NCI In Vivo Anticancer Drug Screen. Data for tumor model P388 Leukemia (intraperitoneal) in B6D2F1 (BDF1) mice
# Conditions: endpoint: median survival time, higher = longer survival
# Outline: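 Survival ratio, drug arm over vehicle arm, in mice with a transplanted tumour.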
# [1] = dose: 50.0 mg/kg/injection, schedule: Q01DX009 (ip), vehicle: saline with Tween-80
# [2] = dose: 100.0 mg/kg/injection, schedule: Q01DX009 (ip), vehicle: saline with Tween-80
# [3] = dose: 200.0 mg/kg/injection, schedule: Q01DX009 (ip), vehicle: saline with Tween-80
# [4] = dose: 25.0 mg/kg/injection, schedule: Q04DX003 (ip), vehicle: saline with Tween-80
# [5] = dose: 100.0 mg/kg/injection, schedule: Q04DX003 (ip), vehicle: saline with Tween-80
# [6] = dose: 200.0 mg/kg/injection, schedule: Q04DX003 (ip), vehicle: saline with Tween-80
# [7] = dose: 400.0 mg/kg/injection, schedule: Q04DX003 (ip), vehicle: saline with Tween-80
smiles,measurement,setting,value
CCCCCCCCCCCCCCCCN(C)CCO,T/C,"dose: 50.0 mg/kg/injection, schedule: Q01DX009 (ip), vehicle: saline + alcohol",97 % of control
c1ccc2c(c1)Cc1nc3ccccc3nc1-2,T/C,"dose: 3.12 mg/kg/injection, schedule: Q01DX009 (ip), vehicle: water",87 % of control
same,T/C,"dose: 6.25 mg/kg/injection, schedule: Q01DX009 (ip), vehicle: water",101 % of control and 110 % of control
same,T/C,"dose: 12.5 mg/kg/injection, schedule: Q01DX009 (ip), vehicle: water",87 % of control and 110 % of control
same,T/C,"dose: 25.0 mg/kg/injection, schedule: Q01DX009 (ip), vehicle: water",93 % of control and 106 % of control and 114 % of control
same,T/C,"dose: 25.0 mg/kg/injection, schedule: Q04DX003 (ip), vehicle: water",116 % of control
same,T/C,"dose: 50.0 mg/kg/injection, schedule: Q01DX009 (ip), vehicle: water",89 % of control and 95 % of control
same,T/C,"dose: 50.0 mg/kg/injection, schedule: Q04DX003 (ip), vehicle: water",102 % of control
same,T/C,"dose: 100.0 mg/kg/injection, schedule: Q01DX009 (ip), vehicle: water",87 % of control and 110 % of control
same,T/C,"dose: 100.0 mg/kg/injection, schedule: Q04DX003 (ip), vehicle: water",103 % of control
same,T/C,"dose: 200.0 mg/kg/injection, schedule: Q01DX009 (ip), vehicle: water",98 % of control
same,T/C,"dose: 200.0 mg/kg/injection, schedule: Q04DX003 (ip), vehicle: water",104 % of control
same,T/C,"dose: 400.0 mg/kg/injection, schedule: Q01DX009 (ip), vehicle: water",104 % of control
same,T/C,"dose: 400.0 mg/kg/injection, schedule: Q04DX003 (ip), vehicle: water",113 % of control
COc1cc2c(cc1OC)C(c1ccc(N=Cc3ccc(Cl)c(Cl)c3)cc1)N(C(=S)Nc1cc(Cl)ccc1Cl)CC2 (stereo not given),T/C,"dose: 25.0 mg/kg/injection, schedule: Q01DX009 (ip), vehicle: saline with Tween-80",104 % of control
same,T/C,[1],93 % of control and 97 % of control
same,T/C,[2],95 % of control
same,T/C,[3],89 % of control
Cc1ccc(-n2c(O)c(C=N)c(=O)n(-c3ccc(C)cc3)c2=O)cc1,T/C,[2],104 % of control
same,T/C,[3],104 % of control
same,T/C,"dose: 400.0 mg/kg/injection, schedule: Q01DX009 (ip), vehicle: saline with Tween-80",95 % of control
COc1cc(C(=O)NCC2(C)OC3(OC(=O)C2O)C(=O)N/C(=C(\C=O)C(C)=O)OC3C(O)C2CN2C(C)=O)c2cccc(C)c2c1 (stereo not given),T/C,"dose: 0.05 mg/kg/injection, schedule: Q01DX010 (ip), vehicle: alkali diluted with saline",245 % of control
same,T/C,"dose: 0.1 mg/kg/injection, schedule: Q01DX010 (ip), vehicle: alkali diluted with saline",300 % of control
same,T/C,"dose: 12.5 micrograms/kg/injection, schedule: Q01DX010 (ip), vehicle: other",180 % of control
same,T/C,"dose: 25.0 micrograms/kg/injection, schedule: Q01DX010 (ip), vehicle: other",155 % of control
same,T/C,"dose: 50.0 micrograms/kg/injection, schedule: Q01DX010 (ip), vehicle: other",195 % of control
O=C(N[C@@H](c1ccccc1)[C@H](N=Cc1ccccc1)c1ccccc1)c1ccccc1,T/C,"dose: 50.0 mg/kg/injection, schedule: Q01DX009 (ip), vehicle: saline",102 % of control
same,T/C,"dose: 50.0 mg/kg/injection, schedule: Q04DX003 (ip), vehicle: saline",91 % of control
same,T/C,"dose: 100.0 mg/kg/injection, schedule: Q01DX009 (ip), vehicle: saline",100 % of control
same,T/C,"dose: 100.0 mg/kg/injection, schedule: Q04DX003 (ip), vehicle: saline",92 % of control
same,T/C,"dose: 200.0 mg/kg/injection, schedule: Q01DX009 (ip), vehicle: saline",91 % of control
same,T/C,"dose: 200.0 mg/kg/injection, schedule: Q04DX003 (ip), vehicle: saline",91 % of control
same,T/C,"dose: 400.0 mg/kg/injection, schedule: Q01DX009 (ip), vehicle: saline",94 % of control
same,T/C,"dose: 400.0 mg/kg/injection, schedule: Q04DX003 (ip), vehicle: saline",90 % of control
C=CCNC(=O)NCC=C,T/C,"dose: 100.0 mg/kg/injection, schedule: Q01DX010 (ip), vehicle: saline",161 % of control
COC(=O)C(Sc1ccccc1N)C1SC(=S)N(Cc2ccccc2)C1=O (stereo not given),T/C,[1],95 % of control
same,T/C,[2],104 % of control
same,T/C,[3],113 % of control
CC(C)(C)c1cc2c3c(c1)C(C)(C)OS3(C)(=O)OC2(C)C,T/C,"dose: 12.5 mg/kg/injection, schedule: Q04DX002 (ip), vehicle: saline with Tween-80",93 % of control
same,T/C,"dose: 25.0 mg/kg/injection, schedule: Q04DX002 (ip), vehicle: saline with Tween-80",107 % of control
same,T/C,"dose: 50.0 mg/kg/injection, schedule: Q04DX002 (ip), vehicle: saline with Tween-80",97 % of control and 98 % of control
CC(C)C(=O)c1ccco1,T/C,"dose: 6.25 mg/kg/injection, schedule: Q04DX003 (ip), vehicle: saline with Tween-80",95 % of control
same,T/C,"dose: 12.5 mg/kg/injection, schedule: Q04DX003 (ip), vehicle: saline with Tween-80",100 % of control
same,T/C,[4],90 % of control
CCNC1=C(N2CC2)C(=O)C(NCC)=C(N2CC2)C1=O,T/C,"dose: 0.37 mg/kg/injection, schedule: Q01DX009 (ip), vehicle: saline",156 % of control and 175 % of control
same,T/C,"dose: 0.75 mg/kg/injection, schedule: Q01DX009 (ip), vehicle: saline",193 % of control and 203 % of control
same,T/C,"dose: 1.5 mg/kg/injection, schedule: Q01DX009 (ip), vehicle: saline",228 % of control and 178 % of control
CCC[CH2][Hg][O]C(C)=O,T/C,"dose: 3.13 mg/kg/injection, schedule: Q01DX009 (ip), vehicle: saline with Tween-80",115 % of control
same,T/C,"dose: 3.13 mg/kg/injection, schedule: Q04DX003 (ip), vehicle: saline sonified",110 % of control
same,T/C,"dose: 4.16 mg/kg/injection, schedule: Q01DX009 (ip), vehicle: saline",114 % of control
same,T/C,"dose: 6.25 mg/kg/injection, schedule: Q01DX009 (ip), vehicle: saline",114 % of control
same,T/C,"dose: 6.25 mg/kg/injection, schedule: Q04DX003 (ip), vehicle: saline sonified",120 % of control
same,T/C,"dose: 8.25 mg/kg/injection, schedule: Q04DX003 (ip), vehicle: saline sonified",109 % of control
same,T/C,"dose: 12.5 mg/kg/injection, schedule: Q01DX009 (ip), vehicle: saline with Tween-80",100 % of control
same,T/C,"dose: 12.5 mg/kg/injection, schedule: Q04DX003 (ip), vehicle: saline sonified",118 % of control
ClC1=CCCCC1,T/C,"dose: 150.0 mg/kg/injection, schedule: Q01DX009 (ip), vehicle: saline",120 % of control
same,T/C,"dose: 225.0 mg/kg/injection, schedule: Q01DX009 (ip), vehicle: saline",115 % of control
same,T/C,"dose: 335.0 mg/kg/injection, schedule: Q01DX009 (ip), vehicle: saline",120 % of control
O=C(Nc1ccccc1C(F)(F)F)Oc1ccc(Cl)cc1Cl,T/C,[5],122 % of control
same,T/C,[6],109 % of control
same,T/C,[7],118 % of control
Cc1ccccc1C(=O)NCC(=O)O,T/C,[5],104 % of control
same,T/C,[6],100 % of control
same,T/C,[7],100 % of control
CCCOC(=O)C(F)C(Br)C(=O)OCCC (stereo not given),T/C,[1],89 % of control
same,T/C,[2],99 % of control
same,T/C,[3],118 % of control
c1ccc(C2C(c3ccnc4c3ccc3ccccc34)C(c3ccccc3)C2c2ccnc3c2ccc2ccccc23)cc1 (stereo not given),T/C,"dose: 25.0 mg/kg/injection, schedule: Q01DX001 (ip), vehicle: Klucel (hydroxypropylcellulose) (HPC)",93 % of control and 91 % of control
same,T/C,"dose: 50.0 mg/kg/injection, schedule: Q01DX001 (ip), vehicle: Klucel (hydroxypropylcellulose) (HPC)",97 % of control and 100 % of control
same,T/C,"dose: 100.0 mg/kg/injection, schedule: Q01DX001 (ip), vehicle: Klucel (hydroxypropylcellulose) (HPC)",100 % of control and 106 % of control
CC1(C)COP(OCC(F)(F)F)OC1,T/C,"dose: 25.0 mg/kg/injection, schedule: Q01DX005 (ip), vehicle: saline with Tween-80",92 % of control
same,T/C,"dose: 50.0 mg/kg/injection, schedule: Q01DX005 (ip), vehicle: saline with Tween-80",94 % of control
same,T/C,"dose: 100.0 mg/kg/injection, schedule: Q01DX005 (ip), vehicle: saline with Tween-80",94 % of control
CCCCN(C(C)(C)C(SSSC(c1ccc(Cl)cc1)C(C)(C)N(CCCC)S(C)(=O)=O)c1ccc(Cl)cc1)S(C)(=O)=O (stereo not given),T/C,[4],100 % of control
same,T/C,"dose: 50.0 mg/kg/injection, schedule: Q04DX003 (ip), vehicle: saline with Tween-80",100 % of control
